Earlier results as cited in US12208061B2 (EXORAO LIFE SCIENCE S.R.L., priority 2019, dated 2025).
Read-outs that look alike come from different tables or passages of the source.

Assays:
[1] = solution for intravenous infusion
[2] = test system: gram-positive bacteria or anaerobes; conditions: against gram-positive bacteria or anaerobes
[3] = test system: gram-negative aerobic pathogens including Pseudomonas aeruginosa; conditions: in vitro

C[C@H]1[C@H](NC(=O)/C(=N\OC(C)(C)C(=O)O)c2csc(N)n2)C(=O)N1S(=O)(=O)O [Aztreonam, (Z)-2-[[[(2-amino-4-thiazolyl)[[(2S,3S)-2-methyl-4-oxo-1-sulfo-3-azetidinyl]carbamoyl]methylene]amino]oxy]-2-methylpropionic acid]
time within which reconstituted solution should be used ([1]; controlled room temperature): ≤ 48 h | time within which reconstituted solution should be used ([1]; refrigerated at 2° C. to 8° C.): within seven days | antimicrobial activity [2]: no useful activity | pH range over which antimicrobial activity is maintained [3]: 6 to 8
